{"source": "patent US10493046B2", "about": "“5-hydroxytryptamine 1B receptor-stimulating agent for use as a promoter of satellite cells self-renewal and/or differentiation” (INSTITUT PASTEUR, priority 2015, dated 2019)", "key": {"satellite cells [1]": {"system": "satellite cells", "experiment": "FACS-sorted satellite cells in vitro, compound added to the culture medium", "assay_type": "cell-based, mouse", "settings": "for Pax7+ (reserve, self-renewing) cells 14 days post-plating / Pax7 positive cells 4 days post-plating / Cells MyoG+ (Myogenin staining): compound added at 10 μM; for Pax7 positive cells 4 days post-plating: 2.000 cells per cm^2; for Cells MyoG+ (Myogenin staining): after 4 days", "method": "(§1) Muscle dissection was done as previously described in cold DMEM. Muscles were then chopped with small scissors and put in a 50 ml Falcon tube with collagenase 0.1% and trypsin 0.25% at 37° C. with gentle agitation. After 20 minutes, the supernatant was collected in 20% serum placed on ice, and the collagenase/trypsin solution was added to continue the digestion. Once muscle was completely digested, the solution was filtrated using 40 μm cell strainers. Satellite cells were cultured in 1:1 DMEM-Glutamax (Gibco#41965-039):MCDB201 (Sigma#M6770) containing 20% serum FBS (Biowest S1860). Medium was filtered using 0.22 μm filters. Cells were plated on Matrigel coating (BD Biosciences#354234) and kept in an incubator (37° C., 5% CO2). […] The thus-obtained supernatant replaced FBS in the culture medium; the rest of the medium was unchanged.\nSatellite cells were isolated from Tg:Pax7nGFP mice and cells were plated at 2.000 cells per cm^2. After overnight, vortioxetine was added at 10 μM. […] 14 days post-plating, a higher number of reserve cells (Pax7 positive cells that are quiescent in vitro) were detected in the vortioxetine-treated cells (9%±0.7) than in the PBS (3.5%±0.9, p=0.01), and when GR127935 inhibitor was added in vitro the number of reserve cells dropped (3.5%±0.9, p=0.9) (FIG. 11c). […] This difference in expression was lost when SC were plated with the GR127935 5-HT1 BR inhibitor (p=0.4) (FIGS. 11c-e). The positive effects of vortioxetine were lost when GR127935 was added in vitro together with vortioxetine (FIGS. 11c-e). These effects were however persistent when adding the 5-HT2 BR antagonist (FIGS. 11c-e). This means that the positive effects observed when plating vortioxetine in vitro with satellite cells is mediated via the 5HT1B receptor and not 5HT2B.\nTo test whether, 2 derivatives of vortioxetine, namely histidine-vortioxetine and pyrrolidinium-vortioxetine, could have similar or improved effect compared to the unmodified vortioxetine, the in vitro approach as described in section 2.2.3 above was used and the differentiation cascade of satellite cells was investigated by assessing the expression pattern of Pax7 (a marker of stemness and quiescence) and Myogenin (MyoG, a marker of differentiation) as described above in section 2.2.3. To do so, satellite cells from Tg:Pax7-nGFP were isolated by FACS and plated at 2.000 cells per cm^2 (seeded overnight). The following day, the vortioxetine, its derivatives, or the control PBS was added at 10 μM and the cells were fixed at the indicated time points."}, "Tibialis anterior": {"system": "Tibialis anterior", "experiment": "Muscle regeneration after notexin injury of tibialis anterior", "assay_type": "in vivo, mouse", "settings": "antagonist together with fluoxetine; SC, differentiating cells, fiber size, calcium deposits, fibrosis, Gr1 and F4/80 cells", "method": "Animals were anesthetized with ketamine (Imalgene1000 100 mg/Kg Merial) and Xylazine (Rompun2% 20 mg/Kg Bayer) prior to injury. Animals were hydrated and treated with analgesic (Buprenorphin Axience 0.3 mg/kg) twice a day for 4 d following injury. For the injury, mice were anesthetized as previously described and 10 μl of 12.5 μg/ml Notexin (Lotaxan) was injected in the Tibialis anterior. All protocols were reviewed by the Institut Pasteur, the competent authority, for compliance with the French and European regulations on Animal Welfare and with Public Health Service recommendations. This project has been reviewed and approved (#2013-0044) by the Institut Pasteur ethic committee (C2EA 89-CETEA).\nTibialis anterior (TA) was carefully dissected and snap frozen in liquid-nitrogen-cooled isopentane for a few minutes and stored at −80° C. prior to cryosectioning (10 μm sections). Sections were kept at room temperature overnight before staining. Sections were then rehydrated in PBS for 10 minutes and fixed in 10% formalin for 3 minutes. The sections were then routinely stained with haematoxylin and eosin (HE) using an automated stain machine or manually with red sirius.\n(§2) Immunostaining was performed on cryosections fixed with 4% paraformaldehyde (PFA EMS#15710) in cold PBS, permeabilized with 0.5% Triton X-100 20 min at room temperature, washed, and blocked with 10% BSA for 30 min. Sections were incubated with primary antibodies overnight at 4° C. (see Table 1 below) and with Alexa-conjugated secondary antibodies 1/250 and Hoechst for 45 minutes. Sections were then analysed using an automated axioscan (Zeiss) or inverted Observer.Z1 Apotome (Zeiss). For apoptosis assessment, cells were collected in 2% serum, spun on polyD-lysine (Sigma-Aldrich#P6407), and immediately fixed with PFA 4%.\nFor image analysis (fibrosis quantification), ImageJ 1.46r software was using between 10 different photos randomly taken per section and 3 sections minimum per experimental group. The pictures were converted in a binary image and the pixel values then collected. For fibre size, the sections were immunostained with rabbit anti Laminin (Sigma-Aldrich #L9393) diluted at 1/200, overnight at 4° C. Secondary Donkey ant Rabbit 488 (DL488 JacksonImmuno #711486152) were used at 1/200 45 minutes at room temperature. The fibre perimeter was done automatically by using Pixcavator® software."}, "satellite cells [2]": {"system": "satellite cells", "experiment": "Satellite cell (SC) number in tibialis anterior of treated mice (histological count or FACS cytometry)", "assay_type": "in vivo, mouse"}, "satellite cells [3]": {"system": "satellite cells", "experiment": "Satellite cell (SC) number in tibialis anterior of treated mice (histological count or FACS cytometry)", "assay_type": "in vivo, mouse", "settings": "for Number of satellite cells per TA by cytometry: Tg:Pax7nGFP mice", "method": "For satellite cell counting, only the tibialis anterior muscle was dissected and digested as described earlier, and the totality of the tube was analysed to assess the number of satellite cells per muscle. FACS analysis was done using a FACSasia (Beckman). All analyses and quantitation were performed using Summit v4.3 software from DakoCytomation and FloJo software. […]\nIn order to count the number of satellite cells, the tibialis anterior (TA) of Tg:Pax7nGFP mice were digested and analysed by FACS in placebo and vortioxetine (12 days, 20 mg/Kg) treated mice. […] After 3 weeks of vortioxetine treatment, the number of satellite cells was even higher (9351 satellite cells±706, p=0.0079) but no statistically significant differences were found between 12 days and 3 weeks of treatment (p=0.15)."}, "satellite cells [4]": {"system": "satellite cells", "experiment": "Satellite cells in vitro in plasma of treated mice (live videomicroscopy, immunostaining)", "assay_type": "cell-based, mouse", "settings": "plasma from fluoxetine-treated mice plus MDL100907", "method": "as §1\nCells isolated by FACS were plated overnight on a 24-well glass bottom plate (P24G-0-10-F; MatTek) coated with matrigel (BD Biosciences#354234) and placed in an incubator in pre-equilibrated medium (1:1 DMEM Glutamax: MCDB [Sigma-Aldrich], 20% FCS (Biowest S1860). The plate was then incubated at 37° C., 5% CO2 (Zeiss, Pecon). A Zeiss Observer.Z1 connected with a LCI PInN 10×/0.8 W phaseII objective and AxioCam camera piloted with AxioVision was used. Cells were filmed for up to 5 days, and images were taken every 30 min with brightfield and phase filters and MozaiX 3×3 (Zeiss). Raw data were transformed and presented as a video.\nThose results were confirmed in vitro (FIG. 7a). […] This difference was lost when SC were plated with GR127935 (p=0.4) (FIG. 7e). The faster exit of quiescence and higher division rates were also lost when adding GR127935 in vitro (FIGS. 7f,g). The effects of the plasma from fluoxetine-treated animals were persistent when adding MDL100907 (FIGS. 7b-g)."}, "vessels [5]": {"system": "vessels", "experiment": "Vessel number in tibialis anterior of treated mice (Flk1GFP/+ or CD31 immunostaining)", "assay_type": "in vivo, mouse", "settings": "vortioxetine I.P 12 days and PBS in osmotic pump"}, "vessels [6]": {"system": "vessels", "experiment": "Vessel number in tibialis anterior of treated mice (Flk1GFP/+ or CD31 immunostaining)", "assay_type": "in vivo, mouse", "method": "as §2\nThroughout the study, focus was made on the tibialis anterior (TA). In skeletal muscle, SC are central for muscle repair. […] SC are localized close to capillaries and angiogenesis is known to be crucial for muscle repair SC survival with cellular interplays between vessel cells and SC. The number of vessels was therefore quantified. In control Flk1^GFP/+ mouse (placebo), the number of vessels was of 870±213.1 vessels per mm^2 and increased after 3 weeks of I.P treatment (1103±110.2 vessels per mm^2), and even more after 6 weeks (1384±175.3 vessels per mm^2, p=0.008) (FIG. 2e). Neovessels presented with normal histological appearance associating a basal lamina and a permeable lumen sometimes containing red blood cells. […] 841±137 CD31+ cells per mm^2 were counted in the placebo-treated mice vs. 2260±361 CD31+ cells per mm^2 in the fluoxetine-treated mice, p=0.008 (FIG. 2t-v), confirming the previous observation.\nIn order to investigate the effect of vortioxetine on vessels number, intra peritoneal (I.P) administration of 20 mg/kg of vortioxetine was performed for either 12 days, 3 or 6 weeks to C57Bl/6 mice (FIG. 10a). The number of CD31+ cells was counted by immunostaining. The number of vessels in the placebo is (863.5±115.6 vessels per mm^2) and increases after 12 days of I.P treatment (2274±926 vessels per mm^2, p=0.03), and even more after 3 weeks (2847±705 vessels per mm^2, p=0.02) (FIG. 10b). However, there was no statistically significant differences between 12 days and 3 weeks of treatment (p=0.49). Neovessels display a normal histological appearance associated with a basal lamina and a permeable lumen sometimes containing red blood cells. The daily administration of vortioxetine IP might cause unwanted peritoneal inflammation that could interfere with angiogenesis since inflammation and neovascularization are intertwined in some models. Vortioxetine was therefore administered per os (P.O) for 12 days: a similar increase in the number of vessels was observed (2451±595 vessels per mm^2 p=0.028, FIG. 10c). To further confirm those results, vortioxetine will be administered to Flk1^GFP/+ mice P.O and I.P for 12 days, and an ex vivo Matrigel angiogenesis assay and plasma from vortioxetine treated mice will be used on HUVEC (endothelial cells)."}}, "note": "Several values for one entry are separate records, joined by “and”; a condition that tells them apart may be missing. Identical values can stand only once.", "data": [{"smiles": "CCCOc1ccc2[nH]cc(C3=CCNCC3)c2n1", "note": "[5-HT1B agonist]", "values": [{"measurement": "Effect of direct addition on differentiation and self-renewal of SC", "setting": "satellite cells [1]; direct addition in the culture media, Pax7+ and Myogenin+ cells", "result": "triggered the same effect as the addition of plasma from fluoxetine-treated mice"}]}, {"smiles": "COc1cccc([C@H](O)C2CCN(CCc3ccc(F)cc3)CC2)c1OC", "note": "[MDL100907]", "values": [{"measurement": "Effects of vortioxetine when adding the 5-HT2 BR antagonist", "setting": "satellite cells [1]; 5-HT2 BR antagonist together with vortioxetine 10 μM", "result": "persistent"}, {"measurement": "Effect of the antagonist on the beneficial effects of fluoxetine after injury", "setting": "Tibialis anterior", "result": "did not suppress the beneficial effects of fluoxetine"}, {"measurement": "Inhibition of fluoxetine effects on SC and vessel number by the antagonist", "setting": "satellite cells [2]; antagonist together with fluoxetine treatment", "result": "no inhibition of fluoxetine effects were observed"}, {"measurement": "Inhibition of vortioxetine effects on vessels and SC number by the antagonist", "setting": "satellite cells [3]; MDL100907 together with vortioxetine", "result": "No inhibition of vortioxetine effects was observed"}, {"measurement": "Effects of the plasma from fluoxetine-treated animals when adding MDL100907", "setting": "satellite cells [4]", "result": "persistent"}]}, {"smiles": "Cc1ccc(Sc2ccccc2N2CC[N+]3(CCCC3)CC2)c(C)c1", "note": "[pyrrolidinium-vortioxetine]", "values": [{"measurement": "Increase in number of self-renewing cells compared with vortioxetine alone", "setting": "satellite cells [1]; 10 μM, 14 days post-plating", "result": 20, "unit": "%"}, {"measurement": "Pax7+ (reserve, self-renewing) cells 14 days post-plating", "setting": "satellite cells [1]", "result": "12.5±1.9", "unit": "%"}, {"measurement": "Pax7 positive cells 4 days post-plating", "setting": "satellite cells [1]", "result": "25.25±4", "unit": "%"}, {"measurement": "Cells MyoG+ (Myogenin staining)", "setting": "satellite cells [1]", "result": "19.75±0.47", "unit": "%"}, {"measurement": "Number of SCs in the TA vs PBS", "setting": "satellite cells [3]; 20 mg/Kg IP for 12 days, TgPax7nGFP mice", "result": "doubling"}]}, {"smiles": "Cc1ccc(Sc2ccccc2N2CCNCC2)c(C)c1", "note": "[vortioxetine, 1-[2-(2,4-Dimethylphenylsulfanyl)phenyl]piperazine]", "values": [{"measurement": "Pax7+ (reserve, self-renewing) cells 14 days post-plating", "setting": "satellite cells [1]", "result": "9% and 10.5±0.65%"}, {"measurement": "Pax7 positive cells 4 days post-plating", "setting": "satellite cells [1]", "result": "23% and 23.7±2.78%"}, {"measurement": "Cells MyoG+ (Myogenin staining)", "setting": "satellite cells [1]", "result": "34.5±2.5", "unit": "%"}, {"measurement": "MyoD (activation marker) expression between conditions", "setting": "satellite cells [1]; vortioxetine 10 μM vs PBS vs GR127935", "result": "did not differ at any time investigated"}, {"measurement": "Myogenin (MyoG) expression increase", "setting": "satellite cells [1]; vortioxetine 10 μM, 4 days post-plating", "result": 2, "unit": "times increase"}, {"measurement": "Number of vessels", "setting": "vessels [5]", "result": "2274±926", "unit": "vessels per mm^2"}, {"measurement": "SC increase by histological count on TA sections", "setting": "satellite cells [2]; vortioxetine 12 days, 20 mg/Kg", "result": "two-fold increase"}, {"measurement": "Number of satellite cells per TA by cytometry", "setting": "satellite cells [3]; vortioxetine 3 weeks", "result": 9351, "unit": "satellite cells"}, {"measurement": "Number of satellite cells per TA by cytometry", "setting": "satellite cells [3]; vortioxetine 12 days, 20 mg/Kg", "result": 8660, "unit": "satellite cells"}, {"measurement": "SC number after P.O administration vs I.P", "setting": "satellite cells [3]; vortioxetine P.O at 20 mg/kg", "result": "a similar increase in SC number"}, {"measurement": "Number of vessels (CD31+)", "setting": "vessels [6]; vortioxetine 20 mg/kg I.P, 3 weeks, C57Bl/6 mice", "result": "2847±705", "unit": "vessels per mm^2"}, {"measurement": "Number of vessels (CD31+)", "setting": "vessels [6]; vortioxetine 20 mg/kg I.P, 12 days, C57Bl/6 mice", "result": "2274±926", "unit": "vessels per mm^2"}, {"measurement": "Number of vessels (CD31+)", "setting": "vessels [6]; vortioxetine per os (P.O), 12 days", "result": "2451±595", "unit": "vessels per mm^2"}]}]}
